Source: ChEMBL document CHEMBL3430912, “GSK Tres Cantos Anti-Kinetoplastid Screening (TCAKS) Data”

Assays:
Trypanosoma cruzi [1] = assay: (§1) GSK_TCAKS: pIC50 H2C9 Imaging: H9c2 Host Cardiomyocytes. […] Cells were then washed once with PBS before infection. T. cruzi trypomastigotes, collected at days 5 to 8 after infection from LLC-MK2 parasite infected cultures, were allowed to swim out for 4h at 37C from a centrifuged pellet (2,500 rpm/10 min/room temperature). Trypomastigotes were then collected and counted in a CASY Cell Counter. Trypomastigotes, in supplemented DMEM, were added to H9c2 cultures in a multiplicity of infection of 1 and incubated for 18 h. Cells were washed once with PBS before incubation of the infected H9c2 monolayer with trypsin (Life-Technologies) to detach cells from the flask. Cells were counted in a CASY Cell Counter using a 150 um capillary and their density set at 5 * 10^4 cells per mL in supplemented assay DMEM. Infected H9c2 were dispensed into 384-well poly-lysine coated assay plates at 50uL per well using a Multidrop Combi dispenser. After seeding them, the plates were incubated at 37C, 5% CO2 for 72h. Cultures were then fixed and stained by addition of 50 uL of a solution containing 8% formaldehyde and 4 uM DRAQ5 DNA dye (BioStatus, UK) per well. […] Five images were collected per well for reliable statistical analysis. Automated image analysis was performed with a script developed on Acapella High Content Imaging and Analysis Software (PerkinElmer). Output: Number of H9c2 Host Cardiomyocytes nuclei to determine drug-related cytotoxicity.; format: functional, organism-based, Rattus norvegicus; conditions: H9c2, 4 h
[2] = system: Trypanosoma brucei brucei; assay: GSK_TCAKS: pIC50 Trypanosoma brucei viability assay using luminiscence. Assay plates (1536-well) were prepared. T. brucei cultures were harvested and counted in a CASY cell counter. A parasite suspension was prepared at a final concentration of 5 * 10^4 cells/mL in complete HMI9 medium and 6uL was dispensed to all wells containing compounds using a Multidrop Combi dispenser. 6uL of HMI9 media with 0.4% DMSO were dispensed to control columns. Plates were incubated for 24 h at 37C, 5% CO2 then tempered for 10 min at room temperature. ATP content was quantified by adding 4 uL of CellTiter-Glo Reagent (Promega) according to the manufacturer's instructions. Luminescence was measured using a ViewLux.; format: functional, organism-based; conditions: Lister 427, CASY
[3] = target: Sterol 14-alpha demethylase (Trypanosoma cruzi (strain CL Brener), UniProt Q7Z1V1); assay: GSK_TCAKS: pIC50 CYP51 from Trypanosoma cruzi.; format: functional
[4] = system: Trypanosoma brucei brucei; assay: GSK_TCAKS: pIC50 Trypanosoma brucei viability assay using fluorescence intensity. Assay plates (1536-well) were prepared by dispensing 25nL of compound solution per well using an Echo acoustic dispenser (Labcyte).; format: functional, organism-based; conditions: Lister 427, 2 h
Trypanosoma cruzi [5] = assay: as §1, with “Trypanosoma cruzi” for “H2C9”, “Amastigotes/Cell.” for “H9c2 Host Cardiomyocytes.”, “number” for “Number”, “amastigotes per cell as infection level measurement.” for “H9c2 Host Cardiomyocytes nuclei to determine drug-related cytotoxicity.”; format: functional, organism-based, Rattus norvegicus; conditions: H9c2, 4 h
Leishmania donovani [6] = assay: (§2) GSK_TCAKS: pIC50 Leishmania donovani Imaging: THP-1 Host Macrophages. Assay plates (384-well) were prepared by adding 250nL of compound to each well. For single shot assay, the final compound concentration was 5 uM. […] Automated image analysis was performed with a script developed on Acapella High Content Imaging and Analysis Software (PerkinElmer). Output: THP-1 cell count were reported for each well.; format: functional, organism-based, Homo sapiens
Trypanosoma cruzi [7] = assay: as §1, with “Trypanosoma cruzi” for “H2C9”, “Infected Cells.” for “H9c2 Host Cardiomyocytes.”, “percentage” for “Number”, “infected cells per well as a second infection marker.” for “H9c2 Host Cardiomyocytes nuclei to determine drug-related cytotoxicity.”; format: functional, organism-based, Rattus norvegicus; conditions: H9c2, 4 h
Leishmania donovani [8] = assay: as §2, with “Infected” for “THP-1 Host”, “Percent of infected macrophage cells” for “THP-1 cell count”; format: functional, organism-based, Homo sapiens; conditions: THP-1
Leishmania donovani [9] = assay: GSK_TCAKS: pIC50 Leishmania donovani viability assay using fluorescence intensity. Assay plates (1536-well) were prepared by adding 30nL per well of compound. For single shot assay, the final compound concentration was 5uM. […] Briefly, eGFP LdBOB axenic amastigotes were harvested, fixed and counted in a CASY cell counter (Roche-Applied Science). A final concentration of 1.5 * 10^5 cells per well were prepared in amastigote media containing 500 U/mL penicillin/streptomycin (Invitrogen) and 6uL was dispensed to each experimental well using a Multidrop Combi dispenser (Thermo Scientific). 6uL of assay media was dispensed to control columns used as reference for 100% compound response. Following incubation for 72 h at 37C, 5% CO2, 2 uL of resazurin was added to each well at a final concentration of 0.5 mM in phosphate buffered saline (PBS) with IGEPAL (Sigma-Aldrich), 0.05% (v/v).; format: functional, organism-based
Leishmania donovani [10] = assay: as §2, with “Amastigotes/Macrophages.” for “THP-1 Host Macrophages.”, “Average number of amastigotes per macrophage” for “THP-1”, “cell” for “cell count”; format: functional, organism-based, Homo sapiens; conditions: THP-1
Trypanosoma cruzi [11] = assay: GSK_TCAKS: pIC50 Trypanosoma cruzi viability assay using beta-GAL activity. This assay was run at single shot at 5uM compound concentration per well. The biological reagents consisted of NIH-3T3 host cells and trypomastigotes parasitic cells; both cell types were set to a 3.3 * 10^5 cells/mL dilution in assay DMEM by means of a CASY cell counter device using a 60um capillary. 6 uL of the mixture were dispensed per well (about 1 * 10^3 host-cells and 1 * 10^3 parasites) with a Multidrop Combi dispenser. […] In all wells, the percentage of DMSO never exceeded 0.5%. Plates incubated for four days at 37C, 5% CO2. The substrate used for the assay fluorescence intensity (FLINT) readout was resorufin-beta-D-galactopiranoside (Sigma-Aldrich) at 5uM per well. It was diluted in PBS supplemented with the soft detergent Igepal (Fluka).; format: functional, organism-based, Mus musculus; conditions: Tulahuen, NIH3T3
NIH3T3 = assay: GSK_TCAKS: pIC50 NIH 3T3 cell line viability assay using luminiscence. Tissue culture surface treated assay plates (1536-well) were used. […] The 100% cells survival control was determined exposing the host-cells to a 0.5% DMSO concentration, whereas the 100% toxicity control was achieved by seeding the cells in presence of Amphotericin B at 50uM. Plates were incubated for four days at 37C, 5% CO2. The assay readout was developed by addition of 5uL of CellTiter-Glo Reagent following the manufacturer's instructions. Luminiscence was measured using a ViewLux.; format: functional, cell-based; conditions: Mus musculus, NIH3T3, 96 h
[12] = GSK_TCAKS: pIC50 HepG2 human cell line viability assay using luminiscence. […] Seeding density was checked to ensure that new mono-layers were not more than 50% confluent at the time of harvesting. Cell suspension was added to 500 mL of the same medium at a final density of 1.2 * 10^5 cells/mL. This cell suspension was dispensed (25 uL, 3000 cells per well) into 384-well clear-bottom plates using a Multidrop Combi dispenser. Prior to addition of the cell suspension, the screening compounds (250 nL) were pre-dispensed into the plates with an Echo liquid handler. Plates were incubated for 48 h at 37C, 5% CO2. After incubation, plates equilibrated at room temperature for 30 min before proceeding to develop the luminescent signal. The signal developer, CellTiter-Glo Reagent, was allowed to equilibrate at room temperature for 30 min and added to the plates (25uL per well) using a Multidrop Combi dispenser. Plates were left for 10 min at room temperature for stabilization and then read using a ViewLux.; format: toxicity, cell-based

Sterol 14-alpha demethylase, sequence (Q7Z1V1 whole entry): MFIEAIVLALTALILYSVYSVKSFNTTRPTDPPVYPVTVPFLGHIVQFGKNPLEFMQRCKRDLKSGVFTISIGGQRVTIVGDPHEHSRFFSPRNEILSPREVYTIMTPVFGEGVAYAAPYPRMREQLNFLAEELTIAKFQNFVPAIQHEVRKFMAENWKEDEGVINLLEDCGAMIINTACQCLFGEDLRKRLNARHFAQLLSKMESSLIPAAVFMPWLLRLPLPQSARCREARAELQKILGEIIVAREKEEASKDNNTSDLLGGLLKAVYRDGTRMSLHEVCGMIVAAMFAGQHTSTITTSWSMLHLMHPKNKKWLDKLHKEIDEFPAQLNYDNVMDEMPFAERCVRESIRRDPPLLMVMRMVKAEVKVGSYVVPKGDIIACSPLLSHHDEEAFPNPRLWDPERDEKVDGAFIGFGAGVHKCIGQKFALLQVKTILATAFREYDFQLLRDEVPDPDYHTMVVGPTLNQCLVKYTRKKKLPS

| SMILES | IC50 (Trypanosoma cruzi [1]) [µM] | IC50 [2] [µM] | IC50 [3] [µM] | IC50 [4] [µM] | IC50 (Trypanosoma cruzi [5]) [µM] | IC50 (Leishmania donovani [6]) [µM] | IC50 (Trypanosoma cruzi [7]) [µM] | IC50 (Leishmania donovani [8]) [µM] | IC50 (Leishmania donovani [9]) [µM] | IC50 (Leishmania donovani [10]) [µM] | IC50 (Trypanosoma cruzi [11]) [µM] | IC50 (NIH3T3) [µM] | IC50 at 48 h [12] [µM] |
| --- | --- | --- | --- | --- | --- | --- | --- | --- | --- | --- | --- | --- | --- |
| COc1cccc(-c2cc(C(F)(F)F)nc(-n3ccc([N+](=O)[O-])n3)n2)c1 | > 50.1 | > 39.8 | > 100 | 31.6 | 0.2 | > 50.1 | 0.398 | > 50.1 | > 50.1 | > 50.1 | 0.398 | > 50.1 | > 100 |
| CN(C)Cc1ccc(-c2ccc(S(=O)(=O)NCC3CCCO3)c(F)c2)cc1 (stereo not drawn) | > 63.1 | 39.8 | 39.8 | 25.1 | 2 | > 63.1 | 5.01 | > 63.1 | > 63.1 | > 63.1 | 1.26 | 15.8 | > 126 |
| CC(C)N(C(=O)CN1C(=O)C(N)C(=O)N(c2ccccc2)c2ccccc21)c1ccccc1 (stereo not drawn) | > 50.1 | > 39.8 | 0.316 | > 39.8 | 0.398 | > 50.1 | 0.316 | > 50.1 | > 50.1 | > 50.1 | 0.316 | 20 | > 100 |
| O=C1CCCCCC1(Cc1cnc[nH]1)c1ccc(Cl)cc1Cl (stereo not drawn) | > 50.1 | > 39.8 | 0.1 | > 39.8 | 0.316 | > 50.1 | 0.251 | > 50.1 | > 50.1 | 6.31 | 0.251 | 20 | 79.4 |
| Clc1ccc(C(CC2CCCCO2)Cn2cncn2)c(Cl)c1 (stereo not drawn) | > 50.1 | > 39.8 | 0.251 | > 39.8 | 1 | > 50.1 | 1.26 | > 50.1 | 25.1 | > 50.1 | 0.398 | 39.8 | > 100 |
| COc1ccc(CN(C)Cc2ccncc2)cc1-c1ccc(S(=O)(=O)NC2CCC2)s1 | 10 | 20 | 0.0794 | > 39.8 | 0.501 | 20 | 0.631 | > 50.1 | 39.8 | 15.8 | 0.501 | 25.1 | > 100 |
| Cc1nc2[nH]c(C)c(Cc3ccc(C(C)C)cc3)c(=O)n2n1 | > 50.1 | > 39.8 | > 100 | > 39.8 | 0.251 | > 50.1 | 0.794 | 31.6 | 1.26 | 15.8 | 0.501 | > 50.1 | > 100 |
| Cn1nc([N+](=O)[O-])nc1N1CCCCC1 | > 50.1 | > 39.8 | > 100 | > 39.8 | 1 | > 50.1 | 12.6 | > 50.1 | > 50.1 | > 50.1 | 1.26 | > 50.1 | > 100 |
| COc1cc(C(C)C)c(S(C)(=O)=O)cc1C(=O)N1CCN(c2ccccc2Cl)CC1 | 20 | 31.6 | > 100 | 25.1 | 2 | 15.8 | 2.51 | 15.8 | 5.01 | 12.6 | 1.58 | > 50.1 | > 100 |
| O=C(NCc1ccc(-n2cccc2)cc1)c1nc(Cn2ccc([N+](=O)[O-])n2)no1 | > 50.1 | > 39.8 | > 100 | > 39.8 | 1.26 | > 50.1 | 2.51 | > 50.1 | > 50.1 | > 50.1 | 2.51 | 50.1 | > 100 |
| COc1ccc(NS(=O)(=O)c2cccc(NC(=O)c3cc(F)cc(F)c3)c2)cc1 | > 50.1 | 1 | > 100 | 0.631 | 0.501 | > 50.1 | 0.501 | > 50.1 | 3.16 | 20 | 0.794 | 25.1 | 31.6 |
| Cc1cc(N(C)C)nc(Nc2ccccc2C)n1 | > 50.1 | > 39.8 | > 100 | 31.6 | 0.501 | 39.8 | 0.794 | 31.6 | > 50.1 | 15.8 | 1.58 | 39.8 | 63.1 |
| O=C1CSC(c2cccnc2)N1c1ccc(Cl)cc1Cl (stereo not drawn) | > 50.1 | > 39.8 | 0.158 | > 39.8 | 0.158 | > 50.1 | 0.251 | > 50.1 | 5.01 | > 50.1 | 0.0708 | > 50.1 | > 100 |
| CN(C)CCN(C)Cc1ccc(F)cc1NS(=O)(=O)c1ccc(Cl)c(Cl)c1 | 6.31 | 5.01 | > 126 | 5.01 | 2 | 31.6 | 2.51 | 7.94 | 7.94 | 2.51 | 1.58 | 15.8 | 39.8 |
| Cn1nc([N+](=O)[O-])nc1Oc1ccc(C(=O)c2ccccc2)cc1 | > 50.1 | > 39.8 | > 100 | 20 | 0.126 | > 50.1 | 0.316 | > 50.1 | > 50.1 | > 50.1 | 0.251 | > 50.1 | > 100 |
| CN1CCCN(C(=O)c2ccc(N3CCCC3)cc2Cl)CC1 | > 50.1 | > 39.8 | > 100 | > 39.8 | 0.631 | > 50.1 | 1 | > 50.1 | 39.8 | > 50.1 | 0.891 | 25.1 | > 100 |
